According to the supplement of paper PMC10307832:

Key:
Experiment in all cases: relative viability (nuclei count vs DMSO), 5 days (fraction); higher = more cells survive
[1] = compound: COC1=CC=C(C=C1)COC2=C(C=C(C=C2)CC3=CN=C(N=C3N)N)OC [GW-2580] + O=C(CCCCCCC(=O)Nc1ccccc1)NO [Vorinostat] (partner 1 µM)
In short: (§1)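 Five library-drug doses in √10 steps were combined with a fixed anchor-drug dose, or a single drug was given alone, by pin tool to lung cancer cell lines in 1536-well plates the day after seeding. Nuclei were stained and counted after 5 days. Relative viability is the nuclei count in treated wells over that in vehicle wells, taken as the median of duplicate plates.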

[2] = compound: Cc1cnc(Nc2ccc(OCCN3CCCC3)cc2)nc1Nc1cccc(S(=O)(=O)NC(C)(C)C)c1 [Fedratinib] + O=C(c1cc(Cc2n[nH]c(=O)c3ccccc23)ccc1F)N1CCN(C(=O)C2CC2)CC1 [Olaparib] (partner 8 µM)
In short: as §1

[3] = compound: Cc1cnc(Nc2ccc(OCCN3CCCC3)cc2)nc1Nc1cccc(S(=O)(=O)NC(C)(C)C)c1 [Fedratinib] + Cc1cc(Nc2cc(N3CCN(C)CC3)nc(Sc3ccc(NC(=O)C4CC4)cc3)n2)n[nH]1 [Tozasertib] (partner 0.1 µM)
In short: as §1

[4] = compound: Cc1cnc(Nc2ccc(OCCN3CCCC3)cc2)nc1Nc1cccc(S(=O)(=O)NC(C)(C)C)c1 [Fedratinib] + C[C@]1(O)C[C@@H](c2nc(-c3ccc4ccc(-c5ccccc5)nc4c3)c3c(N)nccn32)C1 [Linsitinib] (partner 1 µM)
In short: as §1

[5] = compound: Cc1cnc(Nc2ccc(OCCN3CCCC3)cc2)nc1Nc1cccc(S(=O)(=O)NC(C)(C)C)c1 [Fedratinib] + COc1cccc2cc(-c3nc([C@H]4CC[C@H](C(=O)O)CC4)n4ncnc(N)c34)[nH]c12 [OSI-027] (partner 0.5 µM)
In short: as §1

[6] = compound: Cc1cnc(Nc2ccc(OCCN3CCCC3)cc2)nc1Nc1cccc(S(=O)(=O)NC(C)(C)C)c1 [Fedratinib] + CCNC(=O)c1noc(-c2cc(C(C)C)c(O)cc2O)c1-c1ccc(CN2CCOCC2)cc1 [Luminespib] (partner 0.01 µM)
In short: as §1

| Cell Line | relative viability ([1]; first compound 0.08 µM) | relative viability ([1]; first compound 0.8 µM) | relative viability ([1]; first compound 2.53 µM) | relative viability ([1]; first compound 8 µM) | relative viability ([2]; first compound 0.1 µM) | relative viability ([2]; first compound 0.3162 µM) | relative viability ([2]; first compound 1 µM) | relative viability ([3]; first compound 0.1 µM) | relative viability ([3]; first compound 0.3162 µM) | relative viability ([3]; first compound 1 µM) | relative viability ([4]; first compound 0.1 µM) | relative viability ([4]; first compound 0.3162 µM) | relative viability ([4]; first compound 1 µM) | relative viability ([5]; first compound 0.1 µM) | relative viability ([5]; first compound 0.3162 µM) | relative viability ([5]; first compound 1 µM) | relative viability ([6]; first compound 0.1 µM) | relative viability ([6]; first compound 0.3162 µM) | relative viability ([6]; first compound 1 µM) |
| --- | --- | --- | --- | --- | --- | --- | --- | --- | --- | --- | --- | --- | --- | --- | --- | --- | --- | --- | --- |
| HCC-366 | 0.344 | 0.395 | 0.342 | 0.357 | 0.525 | 0.325 | 0.345 | 0.0591 | 0.123 | 0.072 | 0.55 | 0.663 | 0.663 | 0.802 | 0.886 | 0.849 | – | – | – |
| SK-MES-1 | 1.31 | 1.33 | 0.993 | 1.16 | 0.806 | 0.654 | 0.479 | 0.375 | 0.857 | 0.737 | 1.08 | 1.11 | 1 | 0.544 | 0.6 | 0.436 | 0.741 | 0.773 | 0.609 |
| SW 1573 | 0.968 | 0.771 | 0.626 | 0.746 | 0.539 | 0.502 | 0.474 | 0.148 | 0.21 | 0.14 | 0.683 | 0.768 | 0.802 | 0.564 | 0.635 | 0.394 | 0.548 | 0.26 | 0.145 |
| NCI-H661 | 0.86 | 0.801 | 0.767 | 0.632 | 0.713 | 0.77 | 0.748 | 0.327 | 0.326 | 0.371 | 0.512 | 0.533 | 0.622 | 0.729 | 0.735 | 0.55 | 0.925 | 0.969 | 0.846 |
| PC-3 [JPC-3] | 0.917 | 1.26 | 0.572 | 0.639 | 1.01 | 1.09 | 1.01 | 0.833 | 0.894 | 0.864 | 0.924 | 0.932 | 0.951 | 0.776 | 0.801 | 0.764 | 0.716 | 0.793 | 0.642 |
| NCI-H1623 | – | – | – | – | – | – | – | 0.414 | 0.486 | 0.397 | – | – | – | 0.438 | 0.48 | 0.38 | 0.703 | 0.485 | 0.505 |
| Calu-6 | – | – | – | – | 0.618 | 0.588 | 0.55 | – | – | – | 1.02 | 0.953 | 0.917 | – | – | – | – | – | – |
| LC-2-ad | 0.728 | 0.751 | 0.76 | 0.712 | 0.709 | 0.701 | 0.724 | 0.335 | 0.423 | 0.41 | 0.838 | 0.85 | 0.71 | 0.854 | 0.94 | 0.609 | 1.01 | 1.06 | 0.917 |
| CAL-12T | 0.777 | 0.697 | 0.978 | 0.859 | 0.654 | 0.737 | 0.764 | 0.285 | 0.304 | 0.322 | 0.739 | 0.819 | 0.853 | 0.566 | 0.694 | 0.474 | 0.175 | 0.617 | 0.361 |
